Data as given in US8084602B2, “Porphyrin derivatives and their use in photodynamic therapy” (Destiny Pharma Limited, priority 2002, dated 2011).

Experiments:
[1] = system: Pseudomonas aeruginosa ATCC 25668; assay: Range of antimicrobial activity (CFU protocol); type: cell-based
Experimental: (§1) For the further investigation of the exemplary compounds (Table 2), the following protocol was adopted: • (i) Bacteria (S. aureus BAA-44 and E. coli 25922) were grown in brain heart infusion (BHI) broth until they reached the stationary phase of growth. • (ii) The cells were harvested by centrifugation (3000 g for 15 min) with a table centrifuge, washed with 10 mM PBS at pH 7.4 containing 2.7 mM KCl and 0.14 M NaCl and suspended in PBS at an optical density of 0.7 at 650 nm corresponding to 10^8-10^9 cells/ml. • (iii) The bacteria, at the desired cell density (˜10^8 cells/ml) were incubated for 5 min in the dark with various concentrations of the exemplary compounds. • (iv) At the end of the incubation period the cells were washed three times with PBS, suspended in PBS, transferred into a 96-well microtitre plate (200 μl/well) and illuminated for 15 min with the Waldmann light source (15.2 mW/cm^2; 13.7 J/cm^2). The cells were illuminated from the bottom of the plate laying it on the glass cover of the lamp. • (v) After illumination, cell survival was determined by plating serially diluted aliquots of treated and untreated (i.e. no exemplary compound or light present) cells onto brain heart agar (BHA) and counting the number of colonies after 18-24 h incubation at 37° C.
(§2) The antibacterial activity of Compound 10 was tested against a range of bacterial strains: • S. aureus ATCC BAA-44 (a methicillin resistant S. aureus) • Ps. aeruginosa ATCC 25668 • S. epidermidis ATCC 700565 • Streptococcus pyogenes ATCC 49117 • E. coli ATCC 25922

[2] = system: Staphylococcus epidermidis ATCC 700565; assay: Range of antimicrobial activity (CFU protocol); type: cell-based
Experimental: as §1, §2

[3] = system: Streptococcus pyogenes ATCC 49117; assay: Range of antimicrobial activity (CFU protocol); type: cell-based
Experimental: as §1, §2

[4] = system: intact and abraded rat skin; assay: Acute dermal toxicity test (OECD 402); type: in vivo; settings: 3.2 mM topical formulation, 24 hours
Experimental: The compound was applied to both intact and abraded rat skin for 24 hours.

[5] = Photostability (photobleaching); type: physicochemical; settings: 30 minutes illumination
Source text: A bespoke light source capable of delivering light of an appropriate wavelength (417 nm) was developed to activate the test compounds (Waldmann light source 236). […] It consists of a light box (493 mm length×278 mm width×93.3 mm height) where the samples to be tested are placed on the top surface of the light box and illuminated from below.
The photostability of the exemplary compounds was investigated using standard photodynamic procedures. […] The solution was illuminated for various periods: 10, 20 and 30 minutes. After each predetermined illumination period, the absorbance at 404 nm corresponding to the maximum absorption peak of the compound was measured. Parallel experiments were undertaken where the absorbance of Compound 10 solutions that had been kept in the dark for the same time periods as the illumination time periods were measured. Over the 30 minutes period of illumination a small loss in the absorbance value at 404 nm was observed (see FIG. 10A).
The susceptibility of the Compound 10 to photobleaching when subjected to a light at a higher fluence rate (150 mW/cm^2; i.e. ten times that used normally) was investigated. With this illumination system, the solution was kept in a quartz cuvette during illumination while an equivalent solution was kept in the dark.

C[N+](C)(C)CCCOc1ccc(-c2c3nc(cc4ccc([nH]4)c(-c4ccc(OCCC[N+](C)(C)C)cc4)c4nc(cc5ccc2[nH]5)C=C4)C=C3)cc1.[Cl-].[Cl-] [Compound 10, 5,15-bis-[4-(3-Trimethylammonio-propyloxy)-phenyl]-porphyrin dichloride]
Concentration of Compound 10 required to obtain a 3 log reduction in cells (μM) [1]: 5.0 μM
Concentration of Compound 10 required to obtain a 3 log reduction in cells (μM) [2]: 0.0025 μM
Concentration of Compound 10 required to obtain a 3 log reduction in cells (μM) [3]: 0.01 μM
Histological toxicology [4]: No Histological toxicology of any major organ (including the skin) was observed
acute toxic or allergic effect [4]: does not result in any acute toxic or allergic effect
clinical toxicology [4]: no clinical toxicology was observed
loss in the absorbance value at 404 nm ([5]; 10 μM in phosphate-buffered saline/ethanol, blue light 15 mW/cm^2): small loss
reduction of absorbance caused by photobleaching ([5]; 10 μM, 150 mW/cm^2): 15-20%
